Results from patent publication US20230364074A1, “Compounds and Compositions for Disrupting Programmed Ribosomal Frameshifting” (YALE UNIVERSITY, priority 2020, published 2023).

Experiments:
[1] = system: SARS-CoV-2 FSE (−1 PRF); test: cells; type: cell-based; conditions: Severe acute respiratory syndrome coronavirus 2, HEK-293T, 24 h
[2] = system: −1 PRF of EAV; type: cell-based, equine arteritis virus (EAV)
[3] = system: HEK293T cells; type: cell-based
[4] = system: −1 PRF of WNV; type: cell-based, west nile virus (WNV)
[5] = system: HEK293T cells; test: Cell viability in the high-throughput screen (cell nuclei numbers); conditions: 10 μM compound, cell nuclei numbers
[6] = system: −1 PRF of hCoV-229E; type: cell-based; conditions: 20 μM merafloxacin (FIG. 2E)
[7] = system: HIV-1 (NL4-3-dNef-GFP); test: HIV-1 antiviral assay in Jurkat T cells; type: cell-based; conditions: Jurkat T cells (FIG. 7)
[8] = system: −1 PRF of hCoV-NL63; type: cell-based; conditions: 20 μM merafloxacin (FIG. 2E)
[9] = system: −1 PRF of SARS-CoV-2; test: microbe, parasite or virus in culture; type: cell-based
[10] = system: two-stem pseudoknot FSE of IBV; type: cell-based, avian coronavirus infectious bronchitis virus (IBV); conditions: 20 μM merafloxacin (FIG. 2E)
[11] = system: −1 PRF of human PEG10 mRNA; type: cell-based
[12] = system: −1 PRF of HCoV-OC43; test: microbe, parasite or virus in culture; type: cell-based; conditions: Betacoronavirus 1, OC43, read-out: IC50 of −1 PRF inhibition, HCoV-OC43
[13] = system: −1 PRF of HIV-1; type: cell-based, human immunodeficiency virus 1 (HIV-1)
[14] = system: Vero E6 cells; conditions: Vero E6 cells (FIG. 6B)
[15] = system: SARS-CoV-2; test: Viral plaque assay, SARS-CoV-2 in Vero E6 cells; type: cell-based; conditions: Severe acute respiratory syndrome coronavirus 2, Vero C1008
[16] = system: HCoV-OC43; test: Viral plaque assay, HCoV-OC43 in MA104 cells; type: cell-based; conditions: MA104 cells (FIGS. 6G-6H)
Protocol: Plaque formation assays for SARS-CoV-2, HCoV-229E, and HCoV-OC43 were performed in Vero E6, HuH-7.5, and MA104 cells (ATCC), respectively. Briefly, cells were seeded at 2-4×10^5 cells/well in 12-well plates. The following day, cells were incubated with viral stock (multiplicity of infection [MOI]=0.05) for 1 h and washed twice with PBS. Merafloxacin diluted in DMSO was added to the media, mixed briefly, and incubated at 37° C. After 2 d, media were collected, centrifuged, and supernatants were stored at −80° C. To quantify viral titers, the collected media were first serially diluted 10-fold with fresh media. Two hundred microliters of each dilution were added to near-confluent cells in six-well plates and incubated at 37° C. for 1 h with gentle rocking. Subsequently, overlay media (DMEM, 2% FBS, 0.6% Avicel RC-581) was added to each well. After 3 d, cells were fixed with 10% formaldehyde for 30 min, stained with crystal violet for 30 min, and rinsed with deionized water to visualize plaques.

[17] = system: −1 PRF of HCoV-HKU1; test: cells; type: cell-based; conditions: read-out: IC50 of −1 PRF inhibition, HCoV-HKU1
[18] = system: −1 PRF of SARS-CoV; test: microbe, parasite or virus in culture; type: cell-based; conditions: Severe acute respiratory syndrome coronavirus, read-out: IC50 of −1 PRF inhibition, SARS-CoV
[19] = system: SARS-CoV-2 nsp12 / nsp8; type: cell-based
[20] = system: HEK293T cells; conditions: HEK293T (FIG. 2N)
[21] = system: −1 PRF in SARS-CoV-2; conditions: prior art statement; cited from earlier work

CCNCC1CCN(c2c(F)cc3c(=O)c(C(=O)O)cn(CC)c3c2F)C1 (stereo not shown) [merafloxacin, 1-ethyl-7-[3-(ethylaminomethyl)pyrrolidin-1-yl]-6,8-difluoro-4-oxoquinoline-3-carboxylic acid]
inhibition at 10 µM ([1]; read-out: PERCENT EFFECT 2 (Decreased GFP/Red ratio)): 25% | activation at 10 µM ([1]; read-out: PERCENT EFFECT (Increased GFP/Red Ratio)): -13% | inhibition of −1 PRF of EAV [2]: did not inhibit | effect on upstream FLuc translation ([3]; 20 μM merafloxacin (FIG. 2F)): did not affect | effect on ribosome association of the reporter mRNA ([3]; 80 μM merafloxacin (FIG. 2H)): did not affect | effect on global translation (polysome profiles) ([3]; 80 μM merafloxacin for 24 hours (FIG. 2G)): did not affect | effect on reporter mRNA abundance ([3]; FIG. 2M): did not affect | inhibition of −1 PRF of WNV [4]: did not inhibit | PERCENT VIABILITY [5]: 168.57% | activity against −1 PRF of hCoV-229E [6]: much weaker activity | antiviral activity against an HIV-1 reporter virus [7]: no antiviral activity | activity against −1 PRF of hCoV-NL63 [8]: much weaker activity | IC50 ([9]; Severe acute respiratory syndrome coronavirus 2, dose-dependent, FIG. 2C, read-out: IC50 of −1 PRF inhibition, SARS-CoV-2): ~20 µM | −1 PRF of in vitro-transcribed SARS-CoV-2 reporter mRNAs ([9]; in vitro transcribed RNAs (FIG. 2O)): inhibited | validated effect on −1 PRF in dual luciferase-based PRF reporter assay ([9]; repurchased screen candidates): inhibitor | sensitivity of IBV FSE [10]: largely insensitive | inhibition of −1 PRF of human PEG10 mRNA [11]: did not inhibit | IC50 [12]: 39 µM | inhibition of −1 PRF of HIV-1 [13]: did not inhibit | cytotoxicity [14]: without causing substantial cytotoxicity | EC50 ([15]; read-out: EC50 of SARS-CoV-2 replication): 2.6 µM | EC90 ([15]; read-out: EC90 of SARS-CoV-2 replication): 12 µM | antiviral activity against HCoV-OC43 [16]: showed antiviral activity | IC50 [17]: 30 µM | IC50 [18]: ~20 µM | relative abundance between nsp12 and nsp8 [19]: substantially reduced | effect on cell viability [20]: did not affect

CCOC(=O)c1ccccc1NC(=O)N1CCCN(Cc2csc(C)n2)CC1 [MTDB]
inhibition of −1 PRF in SARS-CoV-2 reporter assays [21]: inhibit −1 PRF
